Patent US10385097B2, “Ether compounds for treatment of medical disorders” (Achillion Pharmaceuticals, Inc., priority 2015, dated 2019)
pIC50: −log10 of the molar value.

Target: T1, Human Factor D (Homo sapiens, UniProt P00746)
T1 construct: purified from human serum; purchased Complement Technology, Inc; host or cells: human serum (natural protein, not recombinant)
Test: Human Factor D Assay
Format: biochemical
Details: Table 3; Human Factor D 80 nM, substrate Z-L-Lys-SBzl; read-out: (IC50 (Stars))
Procedure: Example 8. Human Factor D Assay
Human Factor D (purified from human serum, Complement Technology, Inc.) at 80 nM final concentration is incubated with test compound at various concentrations for 5 minutes at room temperature in 50 mM Tris, 1M NaCl, pH 7.5. A synthetic substrate Z-L-Lys-SBzl and DTNB (Ellman's reagent) are added to final concentrations of 100 μM each. Absorbance at 405 nm (A405) is recorded at 30 second intervals for 30 minutes using a microplate spectrophotometer. IC50 values are calculated by nonlinear regression of complement Factor D reaction rates as a function of test compound concentration.

T1 sequence (P00746 26-253): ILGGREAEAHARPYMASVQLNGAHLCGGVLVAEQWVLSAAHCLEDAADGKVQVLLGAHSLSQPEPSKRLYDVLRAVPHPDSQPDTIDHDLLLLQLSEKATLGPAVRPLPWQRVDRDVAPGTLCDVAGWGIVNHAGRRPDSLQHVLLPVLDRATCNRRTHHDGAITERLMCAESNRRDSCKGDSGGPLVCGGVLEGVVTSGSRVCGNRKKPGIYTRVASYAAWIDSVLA

| SMILES | pIC50 |
| --- | --- |
| CC(=O)c1cn(CC(=O)N2C[C@H](F)C[C@H]2C(=O)NCCCCc2ccccc2)c2ccc(OCS(=O)(=O)NC(C)(C)C)cc12 [Compound 138, (2S,4R)-1-(2-(3-Acetyl-5-((N-(tert-butyl)sulfamoyl)methoxy)-1H-indol-1-yl)acetyl)-4-fluoro-N-(4-phenylbutyl)pyrrolidine-2-carboxamide] | > 6.00 |
| CC(=O)c1cn(CC(=O)N2C[C@H](F)C[C@H]2C(=O)NCc2cccc(Cl)c2F)c2ccc(OCS(=O)(=O)NC(C)(C)C)cc12 [Compound 140, (2S,4R)-1-(2-(3-Acetyl-5-((N-(tert-butyl)sulfamoyl)methoxy)-1H-indol-1-yl)acetyl)-N-(3-chloro-2-fluorobenzyl)-4-fluoropyrrolidine-2-carboxamide] | > 6.00 |
| CC(=O)c1cn(CC(=O)N2C[C@H](F)C[C@H]2C(=O)NCc2cccc(Cl)c2F)c2ccc(OCS(N)(=O)=O)cc12 [Compound 141, (2S,4R)-1-(2-(3-Acetyl-5-(sulfamoylmethoxy)-1H-indol-1-yl)acetyl)-N-(3-chloro-2-fluorobenzyl)-4-fluoropyrrolidine-2-carboxamide] | > 6.00 |
| CCOP(=O)(COc1ccc2c(c1)c(C(C)=O)cn2CC(=O)N1C[C@H](F)C[C@H]1C(=O)NCc1ccccc1)OCC [Compound 144, Diethyl (((3-acetyl-1-(2-((2S,4R)-2-(benzylcarbamoyl)-4-fluoropyrrolidin-1-yl)-2-oxoethyl)-1H-indol-5-yl)oxy)methyl)phosphonate] | > 6.00 |
| CCOP(=O)(COc1ccc2c(c1)c(C(C)=O)cn2CC(=O)N1C[C@H](F)C[C@H]1C(=O)NCCc1ccccc1)OCC [Compound 146, Diethyl (((3-acetyl-1-(2-((2S,4R)-4-fluoro-2-(phenethylcarbamoyl)pyrrolidin-1-yl)-2-oxoethyl)-1H-indol-5-yl)oxy)methyl)phosphonate] | > 6.00 |
| CC(=O)c1cn(CC(=O)N2C[C@H](F)C[C@H]2C(=O)NCCc2ccccc2)c2ccc(OCP(=O)(O)O)cc12 [Compound 147, (((3-Acetyl-1-(2-((2S,4R)-4-fluoro-2-(phenethylcarbamoyl)pyrrolidin-1-yl)-2-oxoethyl)-1H-indol-5-yl)oxy)methyl)phosphonic acid] | < 5.00 |
| CCOP(=O)(COc1ccc2c(c1)c(C(C)=O)cn2CC(=O)N1C[C@H](F)C[C@H]1C(=O)NCCCc1ccccc1)OCC [Compound 148, diethyl (((3-acetyl-1-(2-((2S,4R)-4-fluoro-2-((3-phenylpropyl)carbamoyl)pyrrolidin-1-yl)-2-oxoethyl)-1H-indol-5-yl)oxy)methyl)phosphonate] | > 6.00 |
| CC(=O)c1cn(CC(=O)N2C[C@H](F)C[C@H]2C(=O)NCCCc2ccccc2)c2ccc(OCP(=O)(O)O)cc12 [Compound 149, (((3-Acetyl-1-(2-((2S,4R)-4-fluoro-2-((3-phenylpropyl)carbamoyl)pyrrolidin-1-yl)-2-oxoethyl)-1H-indol-5-yl)oxy)methyl)phosphonic acid] | < 5.00 |
| CCOP(=O)(COc1ccc2c(c1)c(C(C)=O)cn2CC(=O)N1C[C@H](F)C[C@H]1C(=O)NCCCCc1ccccc1)OCC [Compound 150, Diethyl (((3-acetyl-1-(2-((2S,4R)-4-fluoro-2-((4-phenylbutyl)carbamoyl)pyrrolidin-1-yl)-2-oxoethyl)-1H-indol-5-yl)oxy)methyl)phosphonate] | > 6.00 |
| CCOP(=O)(COc1ccc2c(c1)c(C(C)=O)cn2CC(=O)N1C[C@H](F)C[C@H]1CCNS(=O)(=O)c1ccccc1)OCC [Compound 158, Diethyl (((3-acetyl-1-(2-((2R,4R)-4-fluoro-2-(2-(phenylsulfonamido)ethyl)pyrrolidin-1-yl)-2-oxoethyl)-1H-indol-5-yl)oxy)methyl)phosphonate] | 5.00 to 6.00 |
| CCOP(=O)(COc1ccc2c(c1)c(C(C)=O)cn2CC(=O)N1CC[C@H]1C(=O)Nc1cccc(C)n1)OCC [Compound 163, Diethyl (S)-(((3-acetyl-1-(2-(2-((6-methylpyridin-2-yl)carbamoyl)azetidin-1-yl)-2-oxoethyl)-1H-indol-5-yl)oxy)methyl)phosphonate] | < 5.00 |
| CC(=O)c1cn(CC(=O)N2C[C@H](F)C[C@H]2C(=O)Nc2cncc(Br)n2)c2ccc(Oc3ncc(F)cn3)cc12 [Compound 164, (2S,4R)-1-(2-(3-Acetyl-5-((5-fluoropyrimidin-2-yl)oxy)-1H-indol-1-yl)acetyl)-N-(6-bromopyrazin-2-yl)-4-fluoropyrrolidine-2-carboxamide] | > 6.00 |
| CC(=O)c1cn(CC(=O)N2[C@@H]3C[C@@H]3C[C@H]2C(=O)Nc2cncc(Br)n2)c2ccc(Oc3ncc(F)cn3)cc12 [Compound 165, (1R,3S,5R)-2-(2-(3-Acetyl-5-((5-fluoropyrimidin-2-yl)oxy)-1H-indol-1-yl)acetyl)-N-(6-bromopyrazin-2-yl)-2-azabicyclo[3.1.0]hexane-3-carboxamide] | > 6.00 |
| CC(=O)c1cn(CC(=O)N2C[C@H](F)C[C@H]2C(=O)Nc2cncc(Br)n2)c2ccc(Oc3ncc(C)cn3)cc12 [Compound 166, (2S,4R)-1-(2-(3-Acetyl-5-((5-methylpyrimidin-2-yl)oxy)-1H-indol-1-yl)acetyl)-N-(6-bromopyrazin-2-yl)-4-fluoropyrrolidine-2-carboxamide] | > 6.00 |
| CC(=O)c1nn(CC(=O)N2C[C@H](F)C[C@H]2C(=O)Nc2cncc(Br)n2)c2ccc(Oc3ncc(C)cn3)cc12 [Compound 167, (2S,4R)-1-(2-(3-Acetyl-5-((5-methylpyrimidin-2-yl)oxy)-1H-indazol-1-yl)acetyl)-N-(6-bromopyrazin-2-yl)-4-fluoropyrrolidine-2-carboxamide] | > 6.00 |
| CC(=O)c1nn(CC(=O)N2C[C@H](F)C[C@H]2C(=O)Nc2cccc(Br)n2)c2ccc(Oc3ncc(C)cn3)cc12 [Compound 169, (2S,4R)-1-(2-(3-Acetyl-5-((5-methylpyrimidin-2-yl)oxy)-1H-indazol-1-yl)acetyl)-N-(6-bromopyridin-2-yl)-4-fluoropyrrolidine-2-carboxamide] | > 6.00 |
| CC(=O)c1nn(CC(=O)N2C[C@H](F)C[C@H]2C(=O)Nc2nc(Br)ccc2C)c2ccc(Oc3ncc(C)cn3)cc12 [Compound 172, (2S,4R)-1-(2-(3-Acetyl-5-((5-methylpyrimidin-2-yl)oxy)-1H-indazol-1-yl)acetyl)-N-(6-bromo-3-methylpyridin-2-yl)-4-fluoropyrrolidine-2-carboxamide] | > 6.00 |

Further lines, results first:

| pIC50 | SMILES |
| --- | --- |
| > 6.00 | CC(=O)c1cn(CC(=O)N2C[C@H](F)C[C@H]2C(=O)NCCCc2ccccc2)c2ccc(OCS(=O)(=O)NC(C)(C)C)cc12 [Compound 135, (2S,4R)-1-(2-(3-Acetyl-5-((N-(tert-butyl)sulfamoyl)methoxy)-1H-indol-1-yl)acetyl)-4-fluoro-N-(3-phenylpropyl)pyrrolidine-2-carboxamide] |
| > 6.00 | CC(=O)c1cn(CC(=O)N2C[C@H](F)C[C@H]2C(=O)NCCCc2ccccc2)c2ccc(OCS(N)(=O)=O)cc12 [Compound 136, (2S,4R)-1-(2-(3-Acetyl-5-(sulfamoylmethoxy)-1H-indol-1-yl)acetyl)-4-fluoro-N-(3-phenylpropyl)pyrrolidine-2-carboxamide] |
| 5.00 to 6.00 | CC(=O)c1cn(CC(=O)N2C[C@H](F)C[C@H]2C(=O)NCCCCc2ccccc2)c2ccc(OCS(N)(=O)=O)cc12 [Compound 139, (2S,4R)-1-(2-(3-Acetyl-5-(sulfamoylmethoxy)-1H-indol-1-yl)acetyl)-4-fluoro-N-(4-phenylbutyl)pyrrolidine-2-carboxamide] |
| 5.00 to 6.00 | CC(=O)c1cn(CC(=O)N2C[C@H](F)C[C@H]2C(=O)NCc2ccccc2)c2ccc(OCP(=O)(O)O)cc12 [Compound 145, (((3-Acetyl-1-(2-((2S,4R)-2-(benzylcarbamoyl)-4-fluoropyrrolidin-1-yl)-2-oxoethyl)-1H-indol-5-yl)oxy)methyl)phosphonic acid] |
| < 5.00 | CC(=O)c1cn(CC(=O)N2C[C@H](F)C[C@H]2C(=O)NCCCCc2ccccc2)c2ccc(OCP(=O)(O)O)cc12 [Compound 151, (((3-Acetyl-1-(2-((2S,4R)-4-fluoro-2-((4-phenylbutyl)carbamoyl)pyrrolidin-1-yl)-2-oxoethyl)-1H-indol-5-yl)oxy)methyl)phosphonic acid] |
| < 5.00 | CC(=O)c1cn(CC(=O)N2C[C@H](F)C[C@H]2CCNS(=O)(=O)c2ccccc2)c2ccc(OCP(=O)(O)O)cc12 [Compound 159, (((3-Acetyl-1-(2-((2R,4R)-4-fluoro-2-(2-(phenylsulfonamido)ethyl)pyrrolidin-1-yl)-2-oxoethyl)-1H-indol-5-yl)oxy)methyl)phosphonic acid] |
| > 6.00 | CC(=O)c1nn(CC(=O)N2C[C@H](F)C[C@H]2C(=O)Nc2cncc(Br)n2)c2ccc(Oc3nccc(C)n3)cc12 [Compound 168, (2S,4R)-1-(2-(3-Acetyl-5-((4-methylpyrimidin-2-yl)oxy)-1H-indazol-1-yl)acetyl)-N-(6-bromopyrazin-2-yl)-4-fluoropyrrolidine-2-carboxamide] |
| > 6.00 | CC(=O)c1nn(CC(=O)N2[C@@H]3C[C@@H]3C[C@H]2C(=O)Nc2cncc(Br)n2)c2ccc(Oc3ncc(C)cn3)cc12 [Compound 170, (1R,3S,5R)-2-(2-(3-Acetyl-5-((5-methylpyrimidin-2-yl)oxy)-1H-indazol-1-yl)acetyl)-N-(6-bromopyrazin-2-yl)-2-azabicyclo[3.1.0]hexane-3-carboxamide] |
| > 6.00 | CC(=O)c1nn(CC(=O)N2[C@@H]3C[C@@H]3C[C@H]2C(=O)Nc2cccc(Br)n2)c2ccc(Oc3ncc(C)cn3)cc12 [Compound 171, (1R,3S,5R)-2-(2-(3-Acetyl-5-((5-methylpyrimidin-2-yl)oxy)-1H-indazol-1-yl)acetyl)-N-(6-bromopyridin-2-yl)-2-azabicyclo[3.1.0]hexane-3-carboxamide] |
